# Experimental data: ChEMBL document CHEMBL1201861, “Genomics of Drug Sensitity in Cancer screening data, Wellcome Trust Sanger Institute”
# What was measured:
# Assay in all cases: cells
# Format in all cases: functional, cell-based, Homo sapiens
# CGTH-W-1 = conditions: Homo sapiens, CGTH-W-1;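 note: growth inhibition of human CGTH-W-1 cells measured by cell viability assay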
# Description: SANGER: Inhibition of human CGTH-W-1 cell growth in a cell viability assay.
# GR-ST = conditions: Homo sapiens, GR-ST
# Description: SANGER: Inhibition of human GR-ST cell growth in a cell viability assay.
# BB30-HNC = conditions: Homo sapiens, BB30-HNC;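 note: growth inhibition of the cultured cell line, read out by a cell viability assay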
# Description: SANGER: Inhibition of human BB30-HNC cell growth in a cell viability assay.
# ES4 = conditions: Homo sapiens, ES4;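 note: growth inhibition of human ES4 cells, read out by a cell viability assay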
# Description: SANGER: Inhibition of human ES4 cell growth in a cell viability assay.
# 8-MG-BA = conditions: Homo sapiens, 8-MG-BA;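 note: growth inhibition of 8-MG-BA cells, read out with a cell viability assay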
# Description: SANGER: Inhibition of human 8-MG-BA cell growth in a cell viability assay.
# HC-1 = conditions: Homo sapiens, HC-1;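 note: growth inhibition of HC-1 cells measured by a cell viability assay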
# Description: SANGER: Inhibition of human HC-1 cell growth in a cell viability assay.
# NCI-H747 = conditions: Homo sapiens, NCI-H747;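 note: growth inhibition of human NCI-H747 cells, read out by a cell viability assay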
# Description: SANGER: Inhibition of human NCI-H747 cell growth in a cell viability assay.
# GOTO = conditions: Homo sapiens, GOTO;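 note: growth inhibition of GOTO cells, read out by a cell viability assay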
# Description: SANGER: Inhibition of human GOTO cell growth in a cell viability assay.
# LS-1034 = conditions: Homo sapiens, LS-1034
# Description: SANGER: Inhibition of human LS-1034 cell growth in a cell viability assay.
# SK-MEL-1 = conditions: Homo sapiens, SK-MEL-1;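 note: growth inhibition of human SK-MEL-1 cells, read out by a cell viability assay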
# Description: SANGER: Inhibition of human SK-MEL-1 cell growth in a cell viability assay.
# IA-LM = conditions: Homo sapiens, IA-LM;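 note: cell viability assay measuring growth inhibition of human IA-LM cells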
# Description: SANGER: Inhibition of human IA-LM cell growth in a cell viability assay.
# KP-N-YS = conditions: Homo sapiens, KP-N-YS;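 note: cell viability assay measuring inhibition of cell line growth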
# Description: SANGER: Inhibition of human KP-N-YS cell growth in a cell viability assay.
# MSTO-211H = conditions: Homo sapiens, MSTO-211H
# Description: SANGER: Inhibition of human MSTO-211H cell growth in a cell viability assay.
# TE-5 = conditions: Homo sapiens, TE-5;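 note: inhibition of cell growth, read out by a cell viability assay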
# Description: SANGER: Inhibition of human TE-5 cell growth in a cell viability assay.
# A3-KAW = conditions: Homo sapiens, A3-KAW;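 note: growth inhibition of human A3-KAW cells, read out with a cell viability assay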
# Description: SANGER: Inhibition of human A3-KAW cell growth in a cell viability assay.
# TGW = conditions: Homo sapiens, TGW;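 note: growth inhibition of human TGW cells, read out with a cell viability assay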
# Description: SANGER: Inhibition of human TGW cell growth in a cell viability assay.
# SK-N-FI = conditions: Homo sapiens, SK-N-FI;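 note: cell viability assay measuring growth inhibition of human SK-N-FI cells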
# Description: SANGER: Inhibition of human SK-N-FI cell growth in a cell viability assay.
# J-RT3-T3-5 = conditions: Homo sapiens, J-RT3-T3-5;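 note: cell viability assay measuring growth inhibition of human J-RT3-T3-5 cells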
# Description: SANGER: Inhibition of human J-RT3-T3-5 cell growth in a cell viability assay.
# NCI-H1650 = conditions: Homo sapiens, NCI-H1650;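 note: growth inhibition of human NCI-H1650 cells measured by a cell viability assay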
# Description: SANGER: Inhibition of human NCI-H1650 cell growth in a cell viability assay.
# IST-MEL1 = conditions: Homo sapiens, IST-MEL1;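 note: growth inhibition of the cell line, read out with a cell viability assay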
# Description: SANGER: Inhibition of human IST-MEL1 cell growth in a cell viability assay.
# NB6 = conditions: Homo sapiens, NB6;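 note: growth inhibition of NB6 cells, read out by a cell viability assay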
# Description: SANGER: Inhibition of human NB6 cell growth in a cell viability assay.
# MOLT-16 = conditions: Homo sapiens, MOLT-16;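 note: growth inhibition of human MOLT-16 cells, read out with a cell viability assay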
# Description: SANGER: Inhibition of human MOLT-16 cell growth in a cell viability assay.
# BE-13 = conditions: Homo sapiens, BE-13;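 note: growth inhibition of human BE-13 cells, measured with a cell viability assay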
# Description: SANGER: Inhibition of human BE-13 cell growth in a cell viability assay.
# HAL-01 = conditions: Homo sapiens, HAL-01;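 note: growth inhibition of human HAL-01 cells, read out with a cell viability assay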
# Description: SANGER: Inhibition of human HAL-01 cell growth in a cell viability assay.
# COLO-824 = conditions: Homo sapiens, COLO-824
# Description: SANGER: Inhibition of human COLO-824 cell growth in a cell viability assay.
# HCC2157 = conditions: Homo sapiens, HCC2157;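 note: growth inhibition of the cancer cell line, read out as cell viability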
# Description: SANGER: Inhibition of human HCC2157 cell growth in a cell viability assay.
# A101D = conditions: Homo sapiens, A101D;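 note: growth inhibition of the cell line, measured with a viability assay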
# Description: SANGER: Inhibition of human A101D cell growth in a cell viability assay.
# A704 = conditions: Homo sapiens, A704;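 note: growth inhibition of human A704 cells, read out with a cell viability assay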
# Description: SANGER: Inhibition of human A704 cell growth in a cell viability assay.
# SW 962 = conditions: Homo sapiens, SW 962;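 note: growth inhibition of human SW962 cells, read out by a cell viability assay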
# Description: SANGER: Inhibition of human SW962 cell growth in a cell viability assay.
# NB12 = conditions: Homo sapiens, NB12;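 note: growth inhibition of human NB12 cells, read out by a cell viability assay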
# Description: SANGER: Inhibition of human NB12 cell growth in a cell viability assay.
# SF-268 = conditions: Homo sapiens, SF-268;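 note: growth inhibition of SF-268 cells determined with a cell viability assay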
# Description: SANGER: Inhibition of human SF268 cell growth in a cell viability assay.
# EW-24 = conditions: Homo sapiens, EW-24;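 note: human EW-24 cancer cell line, growth inhibition read out via a cell viability assay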
# Description: SANGER: Inhibition of human EW-24 cell growth in a cell viability assay.
# D283 Med = conditions: Homo sapiens, D283 Med
# Description: SANGER: Inhibition of human D-283MED cell growth in a cell viability assay.
# NCI-H82 = conditions: Homo sapiens, NCI-H82;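 note: growth inhibition of NCI-H82 cells, measured with a cell viability readout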
# Description: SANGER: Inhibition of human NCI-H82 cell growth in a cell viability assay.
# NEC8 = conditions: Homo sapiens, NEC8;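 note: growth inhibition of human NEC8 cells, read out by a cell viability assay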
# Description: SANGER: Inhibition of human NEC8 cell growth in a cell viability assay.
# OVCAR-4 = conditions: Homo sapiens, OVCAR-4;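 note: growth inhibition of human OVCAR-4 cells, measured with a cell viability assay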
# Description: SANGER: Inhibition of human OVCAR-4 cell growth in a cell viability assay.
# L-428 = conditions: Homo sapiens, L-428
# Description: SANGER: Inhibition of human L-428 cell growth in a cell viability assay.
# NCI-H1395 = conditions: Homo sapiens, NCI-H1395;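 note: cell viability assay read-out quantifying reduced proliferation of human NCI-H1395 cells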
# Description: SANGER: Inhibition of human NCI-H1395 cell growth in a cell viability assay.
# TE-11 = conditions: Homo sapiens, TE-11;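 note: growth inhibition of human TE-11 cells, read out by a cell viability assay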
# Description: SANGER: Inhibition of human TE-11 cell growth in a cell viability assay.
# L-363 = conditions: Homo sapiens, L-363
# Description: SANGER: Inhibition of human L-363 cell growth in a cell viability assay.
# OCUB-M = conditions: Homo sapiens, OCUB-M;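 note: growth inhibition of the cancer cell line, read out through a cell viability assay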
# Description: SANGER: Inhibition of human OCUB-M cell growth in a cell viability assay.
# MFH-ino = conditions: Homo sapiens, MFH-ino;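 note: growth inhibition of human MFH-ino cells, read out by a cell viability assay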
# Description: SANGER: Inhibition of human MFH-ino cell growth in a cell viability assay.
# NCI-H1299 = conditions: Homo sapiens, NCI-H1299;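 note: growth inhibition of human NCI-H1299 cells, read out by a cell viability assay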
# Description: SANGER: Inhibition of human NCI-H1299 cell growth in a cell viability assay.
# NCI-H720 = conditions: Homo sapiens, NCI-H720;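 note: growth inhibition of human NCI-H720 cells determined by a cell viability assay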
# Description: SANGER: Inhibition of human NCI-H720 cell growth in a cell viability assay.
# ES6 = conditions: Homo sapiens, ES6;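 note: growth inhibition of human ES6 cells, read out with a cell viability assay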
# Description: SANGER: Inhibition of human ES6 cell growth in a cell viability assay.
# BB65-RCC = conditions: Homo sapiens, BB65-RCC;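 note: growth inhibition of the cell line, measured with a cell viability assay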
# Description: SANGER: Inhibition of human BB65-RCC cell growth in a cell viability assay.
# MPP-89 = conditions: Homo sapiens, MPP-89;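 note: growth inhibition of human MPP-89 cells, read out with a cell viability assay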
# Description: SANGER: Inhibition of human MPP-89 cell growth in a cell viability assay.
# NOMO-1 = conditions: Homo sapiens, NOMO-1;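 note: growth inhibition of human NOMO-1 cells measured by a cell viability assay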
# Description: SANGER: Inhibition of human NOMO-1 cell growth in a cell viability assay.
# GCIY = conditions: Homo sapiens, GCIY;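 note: growth inhibition of the human GCIY cell line, read out by a cell viability assay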
# Description: SANGER: Inhibition of human GCIY cell growth in a cell viability assay.
smiles,measurement,setting,value
COc1cccc2c1C(=O)c1c(O)c3c(c(O)c1C2=O)C[C@@](O)(C(=O)CO)C[C@@H]3O[C@H]1C[C@H](N)[C@H](O)[C@H](C)O1 [DOXORUBICIN],IC50,CGTH-W-1,0.0535 µM
same,IC50,GR-ST,0.255 µM
same,IC50,BB30-HNC,0.0298 µM
same,IC50,ES4,0.00611 µM
same,IC50,8-MG-BA,0.0221 µM
same,IC50,HC-1,0.0373 µM
same,IC50,NCI-H747,0.135 µM
same,IC50,GOTO,0.286 µM
same,IC50,LS-1034,0.385 µM
same,IC50,SK-MEL-1,> 1.02 µM
same,IC50,IA-LM,0.0635 µM
same,IC50,KP-N-YS,0.218 µM
same,IC50,MSTO-211H,> 1.02 µM
same,IC50,TE-5,0.0375 µM
same,IC50,A3-KAW,0.0401 µM
same,IC50,TGW,> 1.02 µM
same,IC50,SK-N-FI,> 1.02 µM
same,IC50,J-RT3-T3-5,0.0963 µM
same,IC50,NCI-H1650,0.0786 µM
same,IC50,IST-MEL1,0.0448 µM
same,IC50,NB6,> 1.02 µM
same,IC50,MOLT-16,0.29 µM
same,IC50,BE-13,0.051 µM
same,IC50,HAL-01,0.313 µM
same,IC50,COLO-824,> 1.02 µM
same,IC50,HCC2157,0.064 µM
same,IC50,A101D,0.0515 µM
same,IC50,A704,> 1.02 µM
same,IC50,SW 962,0.0699 µM
same,IC50,NB12,0.277 µM
same,IC50,SF-268,0.0924 µM
same,IC50,EW-24,0.97 µM
same,IC50,D283 Med,0.25 µM
same,IC50,NCI-H82,> 1.02 µM
same,IC50,NEC8,0.0336 µM
same,IC50,OVCAR-4,0.157 µM
same,IC50,L-428,0.791 µM
same,IC50,NCI-H1395,> 1.02 µM
same,IC50,TE-11,0.241 µM
same,IC50,L-363,0.324 µM
same,IC50,OCUB-M,0.0152 µM
same,IC50,MFH-ino,0.00399 µM
same,IC50,NCI-H1299,0.0376 µM
same,IC50,NCI-H720,> 1.02 µM
same,IC50,ES6,0.137 µM
same,IC50,BB65-RCC,0.149 µM
same,IC50,MPP-89,0.393 µM
same,IC50,NOMO-1,0.224 µM
same,IC50,GCIY,0.725 µM
